Test results from ChEMBL document CHEMBL1765079, “Syntheses of 2-deoxy-2,3-didehydro-N-acetylneuraminic acid analogues modified by N-sulfonylamidino groups at the C-4 position and biological evaluation as inhibitors of human parainfluenza virus type 1” (Bioorg Med Chem, 2011).

What follows are compounds tested against T1, Hemagglutinin-neuraminidase (Human parainfluenza virus 1, UniProt Q06992) (assay: Inhibition of Human parainfluenza virus 1 sialidase using N-acetyl-alpha-neuramic acid by fluorometric assay).
T1 sequence (Q06992 whole entry): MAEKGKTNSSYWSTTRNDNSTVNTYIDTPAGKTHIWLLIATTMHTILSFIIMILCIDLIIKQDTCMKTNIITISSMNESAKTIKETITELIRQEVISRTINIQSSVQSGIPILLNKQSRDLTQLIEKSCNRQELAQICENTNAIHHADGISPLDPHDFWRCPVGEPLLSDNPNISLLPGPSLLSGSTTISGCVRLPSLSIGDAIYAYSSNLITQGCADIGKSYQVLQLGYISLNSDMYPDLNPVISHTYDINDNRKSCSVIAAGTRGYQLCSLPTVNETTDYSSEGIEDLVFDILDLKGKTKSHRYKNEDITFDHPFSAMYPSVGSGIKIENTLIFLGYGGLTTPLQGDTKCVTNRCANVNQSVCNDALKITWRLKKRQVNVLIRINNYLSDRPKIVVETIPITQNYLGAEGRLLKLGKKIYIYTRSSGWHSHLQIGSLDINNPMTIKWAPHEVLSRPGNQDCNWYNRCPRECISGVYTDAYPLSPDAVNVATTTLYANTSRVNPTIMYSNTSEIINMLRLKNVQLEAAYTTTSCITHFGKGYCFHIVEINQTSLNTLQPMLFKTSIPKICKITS
Design: species or system Human respirovirus 1

`CC(=O)N[C@H]1[C@H]([C@H](O)[C@H](O)CO)OC(C(=O)O)=C[C@@H]1N=C(CC1=CCCCC1)NS(C)(=O)=O` and `CC(=O)N[C@H]1[C@H]([C@H](O)[C@H](O)CO)OC(C(=O)O)=C[C@@H]1N=C(Cc1cccs1)NS(C)(=O)=O` are within 1.5-fold of each other in IC50: 1500 µM for the first, 2000 µM for the second.

First: CC(=O)N[C@H]1[C@H]([C@H](O)[C@H](O)CO)OC(C(=O)O)=C[C@@H]1OCCC(=NC(C)C)NS(=O)(=O)c1ccc(C)cc1
Second: CC(=O)N[C@H]1[C@H]([C@H](O)[C@H](O)CO)OC(C(=O)O)=C[C@@H]1OCC/C(=N\S(=O)(=O)c1ccc(C)cc1)N(C(C)C)C(C)C
The IC50 of the first is 1.6-fold higher: 7700 µM for the first, 4800 µM for the second. The second is the more potent here.

`CC(=O)N[C@H]1[C@H]([C@H](O)[C@H](O)CO)OC(C(=O)O)=C[C@@H]1N=C(Cc1ccc(F)cc1)NS(C)(=O)=O` and `CC(=O)N[C@H]1[C@H]([C@H](O)[C@H](O)CO)OC(C(=O)O)=C[C@@H]1N=C(Cc1ccccc1)NS(C)(=O)=O` are within 1.5-fold of each other in IC50: 1600 µM for the first, 2100 µM for the second.

Compared with `CC(=O)N[C@H]1[C@H]([C@H](O)[C@H](O)CO)OC(C(=O)O)=C[C@@H]1N=C(C)NS(C)(=O)=O`, `CC(=O)NC1[C@H](C(O)[C@H](O)CO)OC(C(=O)O)=C[C@@H]1O` (single isomer, unassigned) [NEU5AC2EN] is 53-fold lower in IC50: 16000 µM for the first, 300 µM for the second.

Going from `CCN(CC)/C(CCO[C@H]1C=C(C(=O)O)O[C@@H]([C@H](O)[C@H](O)CO)[C@@H]1NC(C)=O)=N/S(C)(=O)=O` to `CCN(CC)/C(CCO[C@H]1C=C(C(=O)O)O[C@@H]([C@H](O)[C@H](O)CO)[C@@H]1NC(C)=O)=N\S(=O)(=O)c1ccc(C)cc1`, the IC50 rises from 1500 µM to 9100 µM (6.1-fold). The first is the more potent here.

First: CC(=O)N[C@H]1[C@H]([C@H](O)[C@H](O)CO)OC(C(=O)O)=C[C@@H]1OCCC(=Nc1ccccc1)NS(C)(=O)=O
Second: CCCc1ccc(C/C(=N/S(C)(=O)=O)N[C@H]2C=C(C(=O)O)O[C@@H]([C@H](O)[C@H](O)CO)[C@@H]2NC(C)=O)cc1
The IC50 of the first is 2-fold lower: 800 µM for the first, 1600 µM for the second. The first is the more potent here.
